# ChEMBL document CHEMBL3885881, “DrugMatrix”
# Species: Rattus norvegicus
# Assay: DrugMatrix - Regimen: Daily Repeat
# Format: toxicity, organism-based, Sprague-Dawley
# Parameters: regimen Daily Repeat, gender Male, age 6-8 weeks
# Conditions: in vivo, po, route oral GAVAGE, vehicle 100 % WATER; for ABSOLUTE BASOPHIL / ABSOLUTE EOSINOPHIL / ABSOLUTE LYMPHOCYTE / ABSOLUTE MONOCYTE / ABSOLUTE SEGMENTED NEUTROPHIL / BASOPHIL / EOSINOPHIL / ERYTHROCYTE COUNT / HEMATOCRIT / HEMOGLOBIN / LEUKOCYTE COUNT / LYMPHOCYTE / MEAN CORPUSCULAR HEMOGLOBIN / MEAN CORPUSCULAR HEMOGLOBIN CONCENTRATION / MEAN CORPUSCULAR VOLUME / MONOCYTE / NEUTROPHIL / NUCLEATED RED BLOOD CELLS / PLATELET COUNT: tissue Blood; for ALANINE AMINOTRANSFERASE / ALBUMIN / ALKALINE PHOSPHATASE / ASPARTATE AMINOTRANSFERASE / BLOOD UREA NITROGEN / CARBON DIOXIDE / CHLORIDE / CHOLESTEROL / CREATINE PHOSPHOKINASE / CREATININE / GLUCOSE / LACTATE DEHYDROGENASE / LIPASE / PHOSPHORUS / POTASSIUM / SODIUM / TOTAL BILIRUBIN / TOTAL PROTEIN / URIC ACID: tissue Plasma
# [1] = 0 mg/kg, 72 h, dose level Control, time 3 day
# [2] = 0 mg/kg, 120 h, dose level Control, time 5 day
# [3] = 30 mg/kg, 72 h, dose level Low, time 3 day
structure (smiles),measurement,setting,value
CC1COc2c(N3CCN(C)CC3)c(F)cc3c(=O)c(C(=O)O)cn1c23 (centres undefined) [OFLOXACIN],ABSOLUTE BASOPHIL,[1],0 CELLS/uL
same,ABSOLUTE EOSINOPHIL,[1],0 CELLS/uL
same,ABSOLUTE LYMPHOCYTE,[1],10386.33 CELLS/uL
same,ABSOLUTE MONOCYTE,[1],88.5 CELLS/uL
same,ABSOLUTE SEGMENTED NEUTROPHIL,[1],1008.5 CELLS/uL
same,BASOPHIL,[1],0%
same,EOSINOPHIL,[1],0%
same,ERYTHROCYTE COUNT,[1],5.16 x10E6/uL
same,HEMATOCRIT,[1],32.43%
same,HEMOGLOBIN,[1],12.98 G/DL
same,LEUKOCYTE COUNT,[1],11.48 x10E3/uL
same,LYMPHOCYTE,[1],92.33%
same,MEAN CORPUSCULAR HEMOGLOBIN,[1],25.23 pg
same,MEAN CORPUSCULAR HEMOGLOBIN CONCENTRATION,[1],40.08 G/DL
same,MEAN CORPUSCULAR VOLUME,[1],62.95 fL
same,MONOCYTE,[1],0.67%
same,NEUTROPHIL,[1],7%
same,NUCLEATED RED BLOOD CELLS,[1],0 /100WBC
same,PLATELET COUNT,[1],1016.67 x10E3/uL
same,ALANINE AMINOTRANSFERASE,[1],62.17 u/L
same,ALBUMIN,[1],3.95 G/DL
same,ALKALINE PHOSPHATASE,[1],363.5 u/L
same,ASPARTATE AMINOTRANSFERASE,[1],118 u/L
same,BLOOD UREA NITROGEN,[1],14.5 mg/dL
same,CARBON DIOXIDE,[1],22.83 mmol/L
same,CHLORIDE,[1],100.67 MEQ/L
same,CHOLESTEROL,[1],66 mg/dL
same,CREATINE PHOSPHOKINASE,[1],1308.83 u/L
same,CREATININE,[1],0.22 mg/dL
same,GLUCOSE,[1],187.5 mg/dL
same,LACTATE DEHYDROGENASE,[1],380.17 u/L
same,LIPASE,[1],16.17 u/L
same,PHOSPHORUS,[1],14.27 mg/dL
same,POTASSIUM,[1],6.8 MEQ/L
same,SODIUM,[1],142.53 MEQ/L
same,TOTAL BILIRUBIN,[1],0.2 mg/dL
same,TOTAL PROTEIN,[1],5.68 G/DL
same,URIC ACID,[1],2.87 mg/dL
same,ABSOLUTE BASOPHIL,[2],0 CELLS/uL
same,ABSOLUTE EOSINOPHIL,[2],80 CELLS/uL
same,ABSOLUTE LYMPHOCYTE,[2],13301.33 CELLS/uL
same,ABSOLUTE MONOCYTE,[2],180.83 CELLS/uL
same,ABSOLUTE SEGMENTED NEUTROPHIL,[2],1187.83 CELLS/uL
same,BASOPHIL,[2],0%
same,EOSINOPHIL,[2],0.5%
same,ERYTHROCYTE COUNT,[2],5.54 x10E6/uL
same,HEMATOCRIT,[2],35.65%
same,HEMOGLOBIN,[2],14.22 G/DL
same,LEUKOCYTE COUNT,[2],14.75 x10E3/uL
same,LYMPHOCYTE,[2],90.67%
same,MEAN CORPUSCULAR HEMOGLOBIN,[2],25.65 pg
same,MEAN CORPUSCULAR HEMOGLOBIN CONCENTRATION,[2],39.88 G/DL
same,MEAN CORPUSCULAR VOLUME,[2],64.35 fL
same,MONOCYTE,[2],1%
same,NEUTROPHIL,[2],7.83%
same,NUCLEATED RED BLOOD CELLS,[2],0.17 /100WBC
same,PLATELET COUNT,[2],1285.33 x10E3/uL
same,ALANINE AMINOTRANSFERASE,[2],51.67 u/L
same,ALBUMIN,[2],4.08 G/DL
same,ALKALINE PHOSPHATASE,[2],391.5 u/L
same,ASPARTATE AMINOTRANSFERASE,[2],99.5 u/L
same,BLOOD UREA NITROGEN,[2],15.5 mg/dL
same,CARBON DIOXIDE,[2],28.33 mmol/L
same,CHLORIDE,[2],101.83 MEQ/L
same,CHOLESTEROL,[2],67.83 mg/dL
same,CREATINE PHOSPHOKINASE,[2],771.33 u/L
same,CREATININE,[2],0.23 mg/dL
same,GLUCOSE,[2],156.5 mg/dL
same,LACTATE DEHYDROGENASE,[2],544.33 u/L
same,LIPASE,[2],10.17 u/L
same,PHOSPHORUS,[2],12.03 mg/dL
same,POTASSIUM,[2],6.81 MEQ/L
same,SODIUM,[2],144.13 MEQ/L
same,TOTAL BILIRUBIN,[2],0.22 mg/dL
same,TOTAL PROTEIN,[2],6 G/DL
same,URIC ACID,[2],2.18 mg/dL
same,ABSOLUTE BASOPHIL,[3],0 CELLS/uL
same,ABSOLUTE EOSINOPHIL,[3],95.33 CELLS/uL
same,ABSOLUTE LYMPHOCYTE,[3],12358.67 CELLS/uL
same,ABSOLUTE MONOCYTE,[3],136.33 CELLS/uL
same,ABSOLUTE SEGMENTED NEUTROPHIL,[3],1043 CELLS/uL
same,BASOPHIL,[3],0%
same,EOSINOPHIL,[3],0.67%
same,ERYTHROCYTE COUNT,[3],5.52 x10E6/uL
same,HEMATOCRIT,[3],36.03%
same,HEMOGLOBIN,[3],13.97 G/DL
same,LEUKOCYTE COUNT,[3],13.63 x10E3/uL
same,LYMPHOCYTE,[3],90.67%
same,MEAN CORPUSCULAR HEMOGLOBIN,[3],25.4 pg
same,MEAN CORPUSCULAR HEMOGLOBIN CONCENTRATION,[3],38.77 G/DL
same,MEAN CORPUSCULAR VOLUME,[3],65.33 fL
same,MONOCYTE,[3],1%
same,NEUTROPHIL,[3],7.67%
same,NUCLEATED RED BLOOD CELLS,[3],0 /100WBC
same,PLATELET COUNT,[3],1082 x10E3/uL
same,ALANINE AMINOTRANSFERASE,[3],46.67 u/L
same,ALBUMIN,[3],4.03 G/DL
same,ALKALINE PHOSPHATASE,[3],420.67 u/L
same,ASPARTATE AMINOTRANSFERASE,[3],75 u/L
same,BLOOD UREA NITROGEN,[3],13.33 mg/dL
same,CARBON DIOXIDE,[3],28 mmol/L
same,CHLORIDE,[3],100.33 MEQ/L
same,CHOLESTEROL,[3],76.33 mg/dL
same,CREATINE PHOSPHOKINASE,[3],165.33 u/L
same,CREATININE,[3],0.19 mg/dL
same,GLUCOSE,[3],159 mg/dL
same,LACTATE DEHYDROGENASE,[3],114 u/L
same,LIPASE,[3],10.67 u/L
same,PHOSPHORUS,[3],13.07 mg/dL
same,POTASSIUM,[3],6.69 MEQ/L
same,SODIUM,[3],143.73 MEQ/L
same,TOTAL BILIRUBIN,[3],0.2 mg/dL
same,TOTAL PROTEIN,[3],5.87 G/DL
same,URIC ACID,[3],1.23 mg/dL
